Residues, ends and D or L forms follow the SMILES beside them. *: point of attachment. Cbz = O=C(OCc1ccccc1)*
Tests used:
[1] = system: X31 strain of IAV; assay: Uncoating after endocytosis and fusion at LEs (ammonium chloride block and washout, drugs added 60 min post-uptake); type: cell-based, Influenza A X31 virus strain (H3N2); conditions: drug added 60 min post-uptake, kept during 60 min uncoating
[2] = system: X31 strain of IAV; assay: Acid-bypass uncoating assay (fusion at the plasma membrane); type: cell-based, Influenza A X31 virus strain (H3N2); conditions: for block of uncoating by type II myosin inhibitors: after acid-bypass at the PM (context); for uncoating blocked/decreased by % following PM bypass: percent reduction of uncoating
[3] = biological target: dynein

CC(C)C[C@@H](C=O)NC(=O)[C@H](CC(C)C)NC(=O)[C@H](CC(C)C)NC(=O)OCc1ccccc1 [MG132] (Cbz-Leu-Leu-Leu-aldehyde)
effect on uncoating when IAV fuses at the LEs [1]: no significant effect

O=S(=O)(c1cccc2c(Cl)cccc12)N1CCCNCC1 [ML-9]
block of uncoating by type II myosin inhibitors [2]: more than half

Cc1ccc2c(c1)C(=O)C1(O)CCN(c3ccccc3)C1=N2 (stereo not drawn) [blebbistatin]
block of uncoating by type II myosin inhibitors [2]: more than half

N#CC(=C(O)c1ccc(Cl)cc1Cl)c1nc2cc(Cl)ccc2c(=O)[nH]1 [ciliobrevin D]
uncoating following acid-bypass at the PM, reduced to % of control ([2]; remaining uncoating relative to control, siRNA experiments in A549 cells): 62%

C=C1[C@@H](C)[C@H]2[C@H](Cc3ccccc3)NC(=O)[C@]23[C@H](OC(C)=O)/C=C/[C@@](C)(O)C(=O)[C@@H](C)C/C=C/[C@H]3[C@@H]1O [cytochalasin D]
uncoating blocked/decreased by % following PM bypass [2]: 83%

CC(Nc1nc(N2CCCC2)nc2ccccc12)c1ccccc1 (stereo not drawn) [importazole]
effect on uncoating when IAV fuses at the LEs [1]: no significant effect

COC(=O)Nc1nc2ccc(C(=O)c3cccs3)cc2[nH]1 [nocodazole]
uncoating blocked/decreased by % following PM bypass [2]: 35%

B1: HDAC6 (Dbm), mouse HDAC6 without the dynein-binding domain (del437-481), expressed in rescued HDAC6 KO MEFs (protein)
chain: MTSTGQDSSTRQRKSRHNPQSPLQESSATLKRGGKKCAVPHSSPNLAEVKKKGKMKKLSQPAEEDLVVGLQGLDLNPETRVPVGTGLVFDEQLNDFHCLWDDSFPESPERLHAIREQLILEGLLGRCVSFQARFAEKEELMLVHSLEYIDLMETTQYMNEGELRVLAETYDSVYLHPNSYSCACLATGSVLRLVDALMGAEIRNGMAVIRPPGHHAQHNLMDGYCMFNHLAVAARYAQKKHRIQRVLIVDWDVHHGQGTQFIFDQDPSVLYFSIHRYEHGRFWPHLKASNWSTIGFGQGQGYTINVPWNQTGMRDADYIAAFLHILLPVASEFQPQLVLVAAGFDALHGDPKGEMAATPAGFAHLTHLLMGLAGGKLILSLEGGYNLRALAKGVSASLHTLLGDPCPMLESCVVPCASAQTSIYCTLEALEPFWEVLVYDEKMMSHCNLWDNHHPETPQRILRIMCHLEEVGLAARCLILPARPALDSELLTCHSAEYVEHLRTTEKMKTRDLHREGANFDSIYICPSTFACAKLATGAACRLVEAVLSGEVLNGIAVVRPPGHHAEPNAACGFCFFNSVAVAARHAQIIAGRALRILIVDWDVHHGNGTQHIFEDDPSVLYVSLHRYDRGTFFPMGDEGASSQVGRDAGIGFTVNVPWNGPRMGDADYLAAWHRLVLPIAYEFNPELVLISAGFDAAQGDPLGGCQVTPEGYAHLTHLLMGLAGGRIILILEGGYNLASISESMAACTHSLLGDPPPQLTLLRPPQSGALVSISEVIQVHRKYWRSLRLMKMEDKEECSSSRLVIKKLPPTASPVSAKEMTTPKGKVPEESVRKTIAALPGKESTLGQAKSKMAKAVLAQGQSSEQAAKGTTLDLATSKETVGGATTDLWASAAAPENFPNQTTSVEALGETEPTPPASHTNKQTTGASPLQGVTAQQSLQLGVLSTLELSREAEEAHDSEEGLLGEAAGGQDMNSLMLTQGFGDFNTQDVFYAVTPLSWCPHLMAVCPIPAAGLDVSQPCKTCGTVQENWVCLTCYQVYCSRYVNAHMVCHHEASEHPLVLSCVDLSTWCYVCQAYVHHEDLQDVKNAAHQNKFGEDMPHSH
uncoating using PM bypass, relative to WT MEFs [3]: uncoating in the HDAC6 (Db^m) cells was reduced to 58%% of WT MEFs
uncoating when the virus was allowed to fuse at LEs, compared to WT MEFs [3]: uncoating was reduced to 67% in HDAC6 (Db^m) cells compared to WT MEFs
